Laboratory results from article PMC10854894, “A New Benzo[6,7]oxepino[3,2-b] Pyridine Derivative Induces Apoptosis in Canine Mammary Cancer Cell Lines” (Animals : an Open Access Journal from MDPI, 2024).

Key:
Format in all cases: cell-based, canine
REM134 cells [1] = assay: Relative mRNA expression by qRT-PCR
Method: (§1) After the treatment of the cells with MPOBA at varying concentrations from 0 to 200 µM for 48 h, the total RNA was isolated using a GeneJet RNA Purification kit (Thermo Fisher Scientific, Waltham, MA, USA) according to the manufacturer’s protocol for adherent tissue culture cells using the spin-column method. The RNA’s concentration and purity (A260/A280 ratio) were spectrophotometrically determined using a NanoDrop One/OneC Microvolume UV-Vis Spectrophotometer (Thermo Fisher Scientific, Waltham, MA, USA). To remove genomic DNA contamination, the samples were treated with RQ1 RNase-Free DNase (Promega, Madison, WI, USA) according to the manufacturer’s instructions. First-strand cDNA was obtained using a SuperScript® III First-Strand Synthesis kit for reverse-transcription polymerase chain reaction (RT-PCR) (Invitrogen, Carlsbad, CA, USA) according to the manufacturer’s protocol. Briefly, total RNA (1 μg), oligo (dT) primers (50 µM), a dNTP mix (10 mM), the cDNA synthesis mix, and nuclease-free water were added to obtain a final volume of 20 µL. PCR amplification was performed using a G-Storm GS482 PCR thermal cycler (Gene Technologies, Somerset, UK) with the following reaction profile: 65 °C for 5 min, 50 °C for 50 min, 85 °C for 5 min, and 37 °C for 5 min. The relative mRNA expression levels of canine SNAIL, SLUG, TWIST, E-cadherin, N-cadherin, TP53, EGFR, BAX, and BCL-2 were normalized to canine glyceraldehyde 3-phosphate dehydrogenase (GAPDH). The relative mRNA expression levels were calculated using the 2^–∆∆ Cq method. The transcriptional levels of all genes were determined in four replicates via qRT-PCR using a CFX 96 Touch real-time PCR detection system (Bio-Rad, Hercules, CA, USA). The qRT-PCR was performed using a reaction mixture containing 2 μL of the cDNA template, 10 μL of the iTaq Universal SYBR Green Supermix (Bio-Rad, Hercules, CA, USA), and 1 μL of each primer. The qRT-PCR protocol for the SNAIL, SLUG, TWIST, EGFR, TP53, BAX, BCL-2, and GAPDH genes was carried out as follows: initial denaturation at 94 °C for 3 min, denaturation at 94 °C for 15 s, annealing at 60 °C for 30 s, and extension at 72 °C for 1 min (40 cycles), and dissociation curves were generated between 65 °C and 95 °C to assess the specificity of the amplicons. The qRT-PCR protocol for E-cadherin and N-cadherin was carried out according to Yu et al..

CMGT071020 cells [2] = assay: Relative mRNA expression by qRT-PCR
Method: as §1

REM134 cells [3] = assay: Wound healing assay; details: REM134, 100 or 200 µM, 12 or 24 h, vs untreated control
Method: (§2) The effect of MPOBA on cell migration was examined using a two-dimensional wound healing assay. The REM134 and CMGT071020 cell lines were seeded in a 6-well plate at a density of 5 × 10^5 cells/well and allowed to incubate for 24 h until they reached 100% confluence. The cells were scratched using a sterile 1 mL pipette tip and then treated with MPOBA at concentrations ranging from 0 to 200 µM for 24 h. Images of the scratches were captured at 0, 12, and 24 h post-treatment using phase-contrast microscopy. The wound areas were checked and measured using the NIS-Elements D imaging software program version 5.2 (Nikon, Tokyo, Japan). The cell migration ability was calculated as a percentage of the area covered by cells at 24 h compared to the initial wound area at 0 h. The experiments were repeated four times.

CMGT071020 cells [4] = assay: Wound healing assay; details: CMGT071020, 100 or 200 µM, 12 or 24 h, vs untreated control
Method: as §2

REM134 cells [5] = assay: Transwell migration assay; details: 24 h, vs control (0.1% DMSO)
Method: (§3) The CMC cell migration assay was carried out using Transwell 24-well microplates with an 8 µm pore size (Costar, Corning, NY, USA). Both CMC cell lines were seeded into the upper Transwell insert at a density of 5 × 10^3 cells/well, containing various concentrations of MPOBA (0–200 µM) with 5% FBS in DMEM media. Then, 10% FBS in DMEM medium was added into the lower chambers, and the cells were incubated for 24 h. After an incubation duration of 24 h, the non-invaded cells were removed with a cotton swab from the upper surface of the membrane, and the invaded cells on the lower surface of the membrane were fixed with 100% methanol for 1 min and stained with the Wright–Giemsa stain for 20 min. The number of migrated cells was averaged by counting five random microscope fields for each sample at 4 × magnification in four independent experiments.

CMGT071020 cells [6] = assay: Transwell migration assay; details: 24 h, vs control (0.1% DMSO)
Method: as §3

[7] = REM134, 200 µM, 48 h, vs control
[8] = REM134, 48 h, treated vs untreated
[9] = CMGT071020, 200 µM, 48 h, vs control

Cc1ncccc1Oc1ccccc1C=O [MPOBA, 2-((2-methylpyridin-3-yl)oxy)benzaldehyde]
BAX mRNA expression level (REM134 cells [1]; [7]): dramatically increased
BCL-2 mRNA expression level (REM134 cells [1]; [7]): significantly decreased
TP53 mRNA expression level (REM134 cells [1]; [7]): significantly increased
SLUG mRNA expression level (REM134 cells [1]; [8]): not significantly different
TWIST mRNA expression level (REM134 cells [1]; [8]): not significantly different
E-cadherin mRNA expression level (REM134 cells [1]; REM134, 48 h, vs control): upregulation
EGFR mRNA expression level (REM134 cells [1]; REM134, 48 h, vs control): significantly decreased
N-cadherin mRNA expression level (REM134 cells [1]; REM134, 48 h, vs control): significant downregulation
SNAIL mRNA expression level (REM134 cells [1]; REM134, 48 h, vs control): significant downregulation
BAX mRNA expression level (CMGT071020 cells [2]; [9]): dramatically increased
BCL-2 mRNA expression level (CMGT071020 cells [2]; [9]): significantly decreased
TP53 mRNA expression level (CMGT071020 cells [2]; [9]): significantly increased
TWIST mRNA expression level (CMGT071020 cells [2]; CMGT071020, 48 h, treated vs untreated): not significantly different
E-cadherin mRNA expression level (CMGT071020 cells [2]; CMGT071020, 48 h, vs control): upregulation
EGFR mRNA expression level (CMGT071020 cells [2]; CMGT071020, 48 h, vs control): significantly decreased
N-cadherin mRNA expression level (CMGT071020 cells [2]; CMGT071020, 48 h, vs control): significant downregulation
SLUG mRNA expression level (CMGT071020 cells [2]; CMGT071020, 48 h, vs control): significant downregulation
SNAIL mRNA expression level (CMGT071020 cells [2]; CMGT071020, 48 h, vs control): significant downregulation
cell migration (wound closure) (REM134 cells [3]): significant decline in cell migration
cell migration (wound closure) (CMGT071020 cells [4]): significant decline in cell migration
percentage of migrated cells (REM134 cells [5]; REM134, 100 µM): 35%
percentage of migrated cells (REM134 cells [5]; REM134, 200 µM): 26%
percentage of migrated cells (CMGT071020 cells [6]; CMGT071020, 100 µM): 68%
percentage of migrated cells (CMGT071020 cells [6]; CMGT071020, 200 µM): 40%
